# Data as given in patent US20240366558A1, “TREATING LONG COVID-19 WITH UROLITHINS” (Amazentis SA, priority 2021, published 2024).
# Legend:
# Long COVID = experiment: Patients afflicted with Long COVID administered 500 mg Mitopure (Urolithin A); format: in vivo, human; conditions: three Long COVID patients, patient-indicated
# Procedure: Three patients afflicted with Long COVID were administered 500 mg Mitopure™ (Urolithin A). Each patient indicated improvement in symptoms including reduced fatigue and improved muscle function.
# human PBMCs = experiment: RNA-seq transcriptomic analysis / GSEA of PBMCs from healthy elderly supplemented with Urolithin A; format: in vivo; conditions: 500 mg/day for 28 days, end of treatment vs baseline, placebo-filtered
# Procedure: RNA was extracted from frozen human PBMCs and quality of extraction controlled with Agilent Fragment Analyzer System. RNA-seq library was prepared as strand-specific cDNA library, after the following steps: Purification of poly-A containing mRNA molecules; mRNA fragmentation; Random primed cDNA synthesis (strand-specific); Adapter ligation and adapter specific PCR amplification. RNA-seq run was performed with the NovaSeq6000 using S4 flowcells with 2×150 bp giving at least 30 million read pairs per sample
# The RNA-Seq reads were aligned to the reference human transcriptome using Bowtie generating genome/transcriptome alignments. TopHat identifid the potential exon-exon splice junctions of the initial alignment. Then Cufflinks identified and quantified the transcripts from the preprocessed RNA-Seq alignment assembly. After this, Cuffmerge merged the identified transcript pieces to full length transcripts and annotates the transcripts based on the given annotations. Finally, merged transcripts from two or more samples/conditions were compared, using Cuffdiff to determine the differential expression levels at transcript and gene level including a measure of significance between samples/conditions.
# Gene set enrichment analysis (GSEA) was conducted using R package clusterProfiler, v. 3.18.068. Enrichments of Gene Ontology (GO) Biological Process (BP) was investigated. All the genes subjected to the DE analysis and that passed the independent filtering of DEseq2 were ranked by shrunk log 2 fold change values and used as input data for the analysis. Ensembl IDs of the genes were converted to Entrez IDs for the analysis using biomaRt, v. 2.46. Minimum and maximum genes et sizes were set to 15 and 500, respectively. In order to adjust for the placebo effect, the GSEA results of Urolithin A at 500 mg were filtered to exclude enriched terms (p-value <0.05) obtained from the GSEA of the Placebo DEGs. Key pathways were visualised as bar plots ranked by Normalized Enrichment score (NES).
# RNA-seq transcriptomic analysis was performed in healthy elderly supplemented with either Urolithin A (UA) at 500 mg/day or Placebo for 28 days. Peripheral blood mononuclear cells (PBMCs) were isolated and collected at baseline and at the end of the study. RNA was extracted from these subjects and used to perform RNA-seq and determine biological pathways modulated specifically by Urolithin A, but not Placebo, comparing end-of treatment to baseline
smiles,measurement,setting,value
"O=c1oc2cc(O)ccc2c2ccc(O)cc12 [Urolithin A, urolithin A]",fatigue,Long COVID,reduced
same,muscle function,Long COVID,improved
same,symptoms,Long COVID,improvement
same,"Gene Ontology gene set ""mitochondrial gene expression""",human PBMCs,up-regulated
same,"Gene Ontology gene set ""mitochondrial respiratory chain complex assembly""",human PBMCs,up-regulated
same,"Gene Ontology gene set ""neutrophil activation""",human PBMCs,down-regulated
same,"Gene Ontology gene set ""oxidative phosphorylation""",human PBMCs,up-regulated
same,"Gene Ontology gene set ""regulation of response to cytokine stimulus""",human PBMCs,down-regulated
